Experimental data as given in patent US11225505B2, “Antimicrobial polymyxin derivative compounds” (MONASH UNIVERSITY, priority 2015, dated 2022).
In brackets after ≈: the same amount, converted by molar mass. Where two headings read alike, the source gives them in different places. Where a SMILES comes first, the peptide text is derived from it. Bridges are numbered along the chain shown (N, C = ends). [ ]: non-standard residue; d: D form. The star is where a group is joined. Isoxazole(3-CO,5-Ph) = O=C(c1cc(-c2ccccc2)on1)*; X41 = O=C(c1cc2cc(F)c(F)cc2[nH]1)*; X27 = O=C(c1sc2ccccc2c1Cl)*; X13 = O=C(c1ccnc(Br)c1)*; X59 = Cn1c(Br)ccc1C(=O)*; X65 = O=C(c1cc(Br)ccn1)*; Dab = NCC[C@H](N)C(=O)O; X60 = O=C(c1cnc(Br)s1)*; Abu = CC[C@H](N)C(=O)O; Dap = NC[C@H](N)C(=O)O

Assays:
Type in all cases: cell-based
[1] = test system: Acinetobacter baumannii FADDI-AB030; experiment: microbe, parasite or virus in culture
Method in brief: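 Broth microdilution MIC in cation-adjusted Mueller-Hinton broth per CLSI M100-S24; lipopeptides tested as TFA salts. FADDI-AB030 is a multidrug-resistant clinical isolate. Polymyxin B sulphate served as control.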

[2] = test system: Klebsiella pneumoniae FADDI-KP022
Method in brief: (§1)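 MICs were determined by broth microdilution in cation-adjusted Mueller-Hinton broth following the CLSI M100-S24 protocol. Lipopeptides were tested as trifluoroacetic acid salts against polymyxin-susceptible Gram-negative strains, with polymyxin B sulphate as control. FADDI-PA022 and FADDI-AB034 are multidrug-resistant clinical isolates.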

[3] = test system: Enterobacter cloacae FADDI-EC001
Method in brief: (§2)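 Broth microdilution, CAMHB, per CLSI M100-S24; lipopeptides as TFA salts; polymyxin B sulphate control. Read-out: MIC. Strains are polymyxin-susceptible; PA022 and AB034 are MDR clinical isolates.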

[4] = test system: Klebsiella pneumoniae Kp BM1
Method in brief: as §2

[5] = test system: Acinetobacter baumannii ATCC 17978
Method in brief: as §1

[6] = test system: Pseudomonas aeruginosa FADDI-PA01
Method in brief: as §1

[7] = test system: Acinetobacter baumannii FADDI-AB034
Method in brief: as §1

[8] = test system: Enterobacter cloacae FADDI-EC003
Method in brief: as §1

[9] = test system: Klebsiella pneumoniae FADDI-KP032
Method in brief: as §1

[10] = test system: Pseudomonas aeruginosa FADDI-PA038
Method in brief: as §1

[11] = test system: Enterobacter cloacae FADDI-EC006
Method in brief: as §1

[12] = test system: Pseudomonas aeruginosa ATCC 27853
Method in brief: as §1

[13] = test system: Pseudomonas aeruginosa FADDI-PA022
Method in brief: as §1

Row | Molecule | Minimum inhibitory concentration ([1]; FADDI-AB030) | Minimum inhibitory concentration ([2]; FADDI-KP022) | Minimum inhibitory concentration ([3]; FADDI-EC001) | Minimum inhibitory concentration ([4]; Kp BM1) | Minimum inhibitory concentration ([5]; ATCC 17978) | Minimum inhibitory concentration ([6]; FADDI-) | Minimum inhibitory concentration ([7]; FADDI-AB034) | Minimum inhibitory concentration ([8]; FADDI-EC003) | Minimum inhibitory concentration ([9]; FADDI-KP032) | Minimum inhibitory concentration ([10]; FADDI-PA038) | Minimum inhibitory concentration ([11]; FADDI-EC006) | Minimum inhibitory concentration ([12]; ATCC 27853) | Minimum inhibitory concentration ([13]; FADDI-PA022) | also measured
1 | CC(C)C[C@H]1NC(=O)[C@H](CCN)NC(=O)[C@@H](NC(=O)[C@H](CN)NC(=O)[C@@H](NC(=O)[C@H](CCN)NC(=O)c2sc3ccccc3c2Cl)[C@@H](C)O)CCNC(=O)[C@H]([C@@H](C)O)NC(=O)[C@H](CCN)NC(=O)[C@H](CCN)NC(=O)[C@H](C)NC1=O [Compound 69] (X27-[Dab]T[Dap][Dab][Dab][dL]A[Dab][Dab]T; lactam 4-C) | 0.25 µg/mL (≈ 0.214 µM) | <0.125 µg/mL | 1 µg/mL (≈ 0.856 µM) | 0.25 µg/mL (≈ 0.214 µM) | 0.25 µg/mL (≈ 0.214 µM) | 0.5 µg/mL (≈ 0.428 µM) | 0.25 µg/mL (≈ 0.214 µM) | 0.25 µg/mL (≈ 0.214 µM) | 0.25 µg/mL (≈ 0.214 µM) | 2 µg/mL (≈ 1.71 µM) | 0.25 µg/mL (≈ 0.214 µM) | 0.5 µg/mL (≈ 0.428 µM) | 0.5 µg/mL (≈ 0.428 µM) | 
2 | CC[C@@H]1NC(=O)[C@@H](CC(C)C)NC(=O)[C@H](CCN)NC(=O)[C@@H](NC(=O)[C@H](CN)NC(=O)[C@@H](NC(=O)[C@H](CCN)NC(=O)c2cc3cc(F)c(F)cc3[nH]2)[C@@H](C)O)CCNC(=O)[C@H]([C@@H](C)O)NC(=O)[C@H](CCN)NC(=O)[C@H](CCN)NC1=O [Compound 60] (X41-[Dab]T[Dap][Dab][Dab][dL][Abu][Dab][Dab]T; lactam 4-C) | 0.5 µg/mL (≈ 0.429 µM) | 0.5 µg/mL (≈ 0.429 µM) | 0.25 µg/mL (≈ 0.214 µM) | 0.5 µg/mL (≈ 0.429 µM) | 1 µg/mL (≈ 0.857 µM) | 0.5 µg/mL (≈ 0.429 µM) | 0.5 µg/mL (≈ 0.429 µM) | 0.25 µg/mL (≈ 0.214 µM) | 0.5 µg/mL (≈ 0.429 µM) | 1 µg/mL (≈ 0.857 µM) | 1 µg/mL (≈ 0.857 µM) | 0.5 µg/mL (≈ 0.429 µM) | 0.5 µg/mL (≈ 0.429 µM) | 
3 | CC[C@@H]1NC(=O)[C@@H](CC(C)C)NC(=O)[C@H](CCN)NC(=O)[C@@H](NC(=O)[C@H](CN)NC(=O)[C@@H](NC(=O)[C@H](CCN)NC(=O)c2ccc(Br)n2C)[C@@H](C)O)CCNC(=O)[C@H]([C@@H](C)O)NC(=O)[C@H](CCN)NC(=O)[C@H](CCN)NC1=O [Compound 93] (X59-[Dab]T[Dap][Dab][Dab][dL][Abu][Dab][Dab]T; lactam 4-C; N-terminus assumed) | 0.5 µg/mL (≈ 0.426 µM) | <0.125 µg/mL | <0.125 µg/mL | 0.25 µg/mL (≈ 0.213 µM) | 2 µg/mL (≈ 1.7 µM) | 0.5 µg/mL (≈ 0.426 µM) | 1 µg/mL (≈ 0.852 µM) | 0.5 µg/mL (≈ 0.426 µM) | 0.5 µg/mL (≈ 0.426 µM) | 1 µg/mL (≈ 0.852 µM) | 0.25 µg/mL (≈ 0.213 µM) | 0.5 µg/mL (≈ 0.426 µM) | 0.5 µg/mL (≈ 0.426 µM) | 
4 | CC[C@@H]1NC(=O)[C@@H](CC(C)C)NC(=O)[C@H](CCN)NC(=O)[C@@H](NC(=O)[C@H](CN)NC(=O)[C@@H](NC(=O)[C@H](CCN)NC(=O)c2cc(-c3ccccc3)on2)[C@@H](C)O)CCNC(=O)[C@H]([C@@H](C)O)NC(=O)[C@H](CCN)NC(=O)[C@H](CCN)NC1=O [Compound 80] ({Isoxazole(3-CO,5-Ph)}-[Dab]T[Dap][Dab][Dab][dL][Abu][Dab][Dab]T; lactam 4-C) | 0.5 µg/mL (≈ 0.432 µM) | <0.125 µg/mL | 0.25 µg/mL (≈ 0.216 µM) | 0.25 µg/mL (≈ 0.216 µM) | 0.5 µg/mL (≈ 0.432 µM) | 0.5 µg/mL (≈ 0.432 µM) | 0.5 µg/mL (≈ 0.432 µM) | 0.25 µg/mL (≈ 0.216 µM) | 0.25 µg/mL (≈ 0.216 µM) | 0.5 µg/mL (≈ 0.432 µM) | 0.25 µg/mL (≈ 0.216 µM) | 0.5 µg/mL (≈ 0.432 µM) | 0.5 µg/mL (≈ 0.432 µM) | 
5 | CC[C@@H]1NC(=O)[C@@H](CC(C)C)NC(=O)[C@H](CCN)NC(=O)[C@@H](NC(=O)[C@H](CN)NC(=O)[C@@H](NC(=O)[C@H](CCN)NC(=O)c2ccnc(Br)c2)[C@@H](C)O)CCNC(=O)[C@H]([C@@H](C)O)NC(=O)[C@H](CCN)NC(=O)[C@H](CCN)NC1=O [Compound 25] (X13-[Dab]T[Dap][Dab][Dab][dL][Abu][Dab][Dab]T; lactam 4-C) | 1 µg/mL (≈ 0.854 µM) | <0.125 µg/mL | 0.5 µg/mL (≈ 0.427 µM) | 0.25 µg/mL (≈ 0.213 µM) | 1 µg/mL (≈ 0.854 µM) | 0.25 µg/mL (≈ 0.213 µM) | 1 µg/mL (≈ 0.854 µM) | <0.125 µg/mL | 0.25 µg/mL (≈ 0.213 µM) | 1 µg/mL (≈ 0.854 µM) | 2 µg/mL (≈ 1.71 µM) | 0.25 µg/mL (≈ 0.213 µM) | 0.25 µg/mL (≈ 0.213 µM) | 
6 | CC[C@@H]1NC(=O)[C@@H](CC(C)C)NC(=O)[C@H](CCN)NC(=O)[C@@H](NC(=O)[C@H](CN)NC(=O)[C@@H](NC(=O)[C@H](CCN)NC(=O)c2cnc(Br)s2)[C@@H](C)O)CCNC(=O)[C@H]([C@@H](C)O)NC(=O)[C@H](CCN)NC(=O)[C@H](CCN)NC1=O [Compound 91] (X60-[Dab]T[Dap][Dab][Dab][dL][Abu][Dab][Dab]T; lactam 4-C) | 1 µg/mL (≈ 0.849 µM) | <0.125 µg/mL | 0.5 µg/mL (≈ 0.425 µM) | 0.5 µg/mL (≈ 0.425 µM) | 2 µg/mL (≈ 1.7 µM) | 0.5 µg/mL (≈ 0.425 µM) | 2 µg/mL (≈ 1.7 µM) | 1 µg/mL (≈ 0.849 µM) | 0.5 µg/mL (≈ 0.425 µM) | 1 µg/mL (≈ 0.849 µM) | 0.5 µg/mL (≈ 0.425 µM) | 0.5 µg/mL (≈ 0.425 µM) | 0.5 µg/mL (≈ 0.425 µM) | 
7 | Polymyxin B [reference compound] |  |  |  |  |  |  |  |  |  |  |  |  |  | Minimum inhibitory concentration ([1]; A. baumannii FADDI-AB030, CAMHB broth microdilution): 0.25 µg/mL; Minimum inhibitory concentration ([1]; clinically used antibiotics, clinical isolate A. baumannii FADDI-AB030): 0.25 µg/mL; Minimum inhibitory concentration ([2]; K. pneumoniae FADDI-KP022, CAMHB broth microdilution): <0.125 µg/mL; Minimum inhibitory concentration ([3]; E. cloacae FADDI-EC001, CAMHB broth microdilution): 0.25 µg/mL; Minimum inhibitory concentration ([4]; K. pneumoniae Kp BM1, CAMHB broth microdilution): 0.5 µg/mL; Minimum inhibitory concentration ([5]; A. baumannii ATCC 17978, CAMHB broth microdilution): 1 µg/mL; Minimum inhibitory concentration ([6]; P. aeruginosa FADDI-PA01, CAMHB broth microdilution): 0.5 µg/mL; Minimum inhibitory concentration ([7]; A. baumannii FADDI-AB034, CAMHB broth microdilution): 0.5 µg/mL; Minimum inhibitory concentration ([8]; E. cloacae FADDI-EC003, CAMHB broth microdilution): 0.5 µg/mL; Minimum inhibitory concentration ([9]; K. pneumoniae FADDI-KP032, CAMHB broth microdilution): <0.125 µg/mL; Minimum inhibitory concentration ([10]; P. aeruginosa FADDI-PA038, CAMHB broth microdilution): 1 µg/mL; Minimum inhibitory concentration ([11]; E. cloacae FADDI-EC006, CAMHB broth microdilution): 0.5 µg/mL; Minimum inhibitory concentration ([12]; P. aeruginosa ATCC 27853, CAMHB broth microdilution): 1 µg/mL; Minimum inhibitory concentration ([13]; P. aeruginosa FADDI-PA022, CAMHB broth microdilution): 1 µg/mL
8 | CC[C@@H]1NC(=O)[C@@H](CC(C)C)NC(=O)[C@H](CCN)NC(=O)[C@@H](NC(=O)[C@H](CN)NC(=O)[C@@H](NC(=O)[C@H](CCN)NC(=O)c2cc(Br)ccn2)[C@@H](C)O)CCNC(=O)[C@H]([C@@H](C)O)NC(=O)[C@H](CCN)NC(=O)[C@H](CCN)NC1=O [Compound 102] (X65-[Dab]T[Dap][Dab][Dab][dL][Abu][Dab][Dab]T; lactam 4-C) | 0.25 µg/mL (≈ 0.213 µM) | <0.125 µg/mL | <0.125 µg/mL | <0.125 µg/mL | 0.5 µg/mL (≈ 0.427 µM) | 0.5 µg/mL (≈ 0.427 µM) | 0.5 µg/mL (≈ 0.427 µM) | <0.125 µg/mL | 0.25 µg/mL (≈ 0.213 µM) | 1 µg/mL (≈ 0.854 µM) | <0.125 µg/mL | 0.5 µg/mL (≈ 0.427 µM) | 0.5 µg/mL (≈ 0.427 µM) | 
